Test results published in US5641793A, “Pyridine compounds which have useful pharmaceutical activity” (Zeneca Limited, priority 1994, dated 1997).

Tests used:
endothelin receptor = experiment: Test B: inhibition of the relaxant response to endothelin-1 in guinea-pig isolated taenia coli; settings: antagonism of endothelin-1 relaxation, initial test concentration 20 μM
Description: The endothelin receptor antagonist activity of compounds of formula I may be assessed in vitro in isolated tissues by their ability to inhibit the relaxant response to endothelin-1 in the guinea-pig isolated taenia coli. Guinea pigs of either sex and weight >250 g are killed by cervical dislocation and the caecum removed and placed in cold oxygenated Krebs solution. Strips of taenia coli are dissected out and approximately 4 cm lengths set up for isotonic recording in a 20 ml organ bath containing oxygenated Krebs solution at 32° C. After a […] equilibration period to allow the tissue to spontaneously develop an increased tone, a cumulative concentration-response curve (relaxation) is constructed to endothelin-1 (0.3-10 nM). The tissue is then washed for a period of at least 90 minutes before construction of a second concentration-response curve to endothelin-1 in the presence of the test compound. The test compound is added to the organ bath (at an initial concentration of 20 μM) at least 30 minutes before constructing the second concentration-response curve to endothelin-1. The endothelin-1 concentration ratio for each experiment is determined by comparing the most parallel portions of the control and drug treated concentration-response curves. From this a pA2 is calculated: pA2 =-log[molar drug concentration]+log[concentration ratio-1].

[1] = test system: Human ETA or ETB receptors; experiment: Test A: inhibition of [125I]-Endothelin-1 binding to MEL cell membranes expressing recombinant receptor; settings: inhibition of 30 pM [125I]-Endothelin-1 binding; receptor sub-type (ETA or ETB) not given
Text: The endothelin receptor antagonist activity of compounds of formula I may be assessed in vitro by their ability to inhibit binding of [^125 I]-Endothelin-1 to its receptors. Human ETA or ETB receptors (sub-types of the endothelin receptor) were expressed in Mouse Erythroleukemic Cells (MEL cells) by using standard molecular techniques (for example, as described by Sambrook J., Fritsch E. F. & Maniatis T. (1989) Molecular Cloning: A Laboratory Manual, 2nd Edition, Cold Spring Harbor Press, U.S.A.). cDNA sequences encoding the human ETA and ETB receptor (Hosoda K. et al (1991), FEBS Lett., 287, 23-26 and Sakamoto A. et al, (1991), Biochem. Biophys Res. Comm., 178, 656-663) are subcloned into pBluescript vector followed by insertion into the MEL cell expression vector pEV as described by Needham et al (1992), Nuc. Acids Res., 20, 997-1003. […]
[^125 I]-Endothelin-1 binding to MEL cell membranes was measured in incubation buffer containing 50 mM Tris HCl, 1 mM CaCl2, 0.05% polyoxyethylenesorbitan monolaurate, 0.1% Bovine Serum Albumin (BSA), 0.02% sodium azide pH 7.4 at 30° C. after 180 minutes incubation. […] Nonspecific binding was measured in the presence of 100 nM unlabelled Endothelin-1. […] The filter discs were punched out and counted in a gamma counter. Compounds are tested in triplicate over a range of concentrations and IC50 (or pIC50) values calculated.

Cc1cc(Br)cnc1NS(=O)(=O)c1cccc2c(N(C)C)cccc12 [Example 6, 5-(dimethylamino)-N-(5-bromo-3-methyl-2-pyridyl)-1-naphthalenesulphonamide]
pA2 in test B (endothelin receptor): 6.6
pIC50 in test A [1]: 6.5
